From US20050266060A1, “Transdermal delivery system for treatment of cognitive disorders” (priority 2004, published 2005)

How the values were obtained:
[1] = chemical stability of phenserine in vehicles; format: physicochemical
Description: The time-course profiles for phenserine penetration across human epidermis from the formulations of the invention are conducted. […] Therefore, breakdown and degradation products, for example, by hydrolysis and subsequent oxidation, are assayed in each vehicle. The vehicles of the invention, including propionic acid and/or oleic acid, are assayed for the chemical stability of a phenserine compound.

[2] = test system: cholinesterase; assay: inhibition of cholinesterase activity; format: biochemical
Text: The phenserine compounds of the invention may be synthesized using processes known in the art. For example, U.S. Pat. Nos. 6,495,700, 5,409,948, 5,171,750, 5,378,723, and 5,998,460, and WO 03/082270 A1, all of which are hereby incorporated by reference in their entirety, describe the preparation of the phenserine compounds of the invention and enzyme inhibition assays that may be used to test compounds of the invention.

[3] = in vitro penetration across human epidermis in glass diffusion cells; format: in vitro ADME
Description: Preparation of skin membranes: Human skin is obtained post mortem and may be stored at −20° C. until needed. When required the tissue is allowed to thaw at room temperature and the subcutaneous fat removed. Epidermal sheets are separated from full-thickness skin by immersing in water at 60° C. for 45 seconds and gently peeling away the epidermis. Alternatively, skin may be obtained from another source, such as a mouse or rat.
Absorption studies are performed in vitro using glass diffusion cells, having epidermal membranes mounted in Franz type diffusion cells. For example, Franz type diffusion cells having a cross-sectional area of 2.54 cm^2. The cells may be housed in a water bath to maintain a desired temperature. The upper surface of the membrane is exposed to donor solution and the under surface of the membrane is bathed by continuously stirred receptor fluid. Receptor fluid may be a phosphate buffered saline solution, or any physiological solution.
Membrane integrity may be assayed using methods well known in the art prior to conducting a diffusion assay. […]
Results from absorption experiments are typically plotted as cumulative amount absorbed against time. The steady state penetration rate, or flux, J (μg/cm^2/hr), is typically calculated by linear regression analysis from the linear regions of an absorption plot. […]

[4] = test system: brain extracellular ACh; assay: striatal in vivo microdialysis in conscious, freely-moving rats
Description: (§1) To determine the time-dependent effects of phenserine on cholinergic function, AChE activity, brain and plasma drug levels and brain extracellular ACh concentrations were measured in rats before and after phenserine administration.

[5] = target: T1, AChE (Rattus norvegicus, UniProt P37136); assay: time-dependent AChE inhibition in rats after phenserine administration
T1 sequence (P37136 32-614): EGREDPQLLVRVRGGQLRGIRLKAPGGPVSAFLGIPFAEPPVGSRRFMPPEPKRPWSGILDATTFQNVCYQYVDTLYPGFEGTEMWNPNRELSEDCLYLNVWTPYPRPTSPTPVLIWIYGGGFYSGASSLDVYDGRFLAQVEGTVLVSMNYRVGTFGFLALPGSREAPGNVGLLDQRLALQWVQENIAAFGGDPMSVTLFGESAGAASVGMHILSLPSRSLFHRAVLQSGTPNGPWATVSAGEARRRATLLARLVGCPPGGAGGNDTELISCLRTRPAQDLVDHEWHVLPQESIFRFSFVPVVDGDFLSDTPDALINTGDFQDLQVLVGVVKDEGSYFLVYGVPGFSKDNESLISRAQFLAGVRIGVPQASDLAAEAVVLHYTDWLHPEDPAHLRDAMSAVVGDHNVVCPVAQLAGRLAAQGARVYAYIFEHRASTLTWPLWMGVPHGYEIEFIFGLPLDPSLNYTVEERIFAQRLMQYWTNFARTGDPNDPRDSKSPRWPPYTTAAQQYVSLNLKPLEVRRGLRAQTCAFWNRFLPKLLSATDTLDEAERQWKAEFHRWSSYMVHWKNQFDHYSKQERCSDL
Description: as §1

[6] = clinical studies of oral phenserine compound; format: in vivo, human; details: oral dose of about 10 and/or 15 mg bid
Description: Clinical studies indicate that an oral dose of a phenserine compound of about 10 and/or 15 mg bid may produce a beneficial treatment for cognitive disorders, such as AD. […] Therefore, the dosage of a phenserine compound may be reduced when administered transdermally.

[7] = solubility of phenserine or its salt; format: physicochemical; details: propionic acid as co-solvent with isopropyl myristate and/or oleic acid
Description: To assay solubility, between 10-20 mg of phenserine is weighed into a 1 ml volumetric flask. An initial 1 ml volume of a chosen vehicle is added to the flask and the mixture agitated, for example, ultrasonically for at least 30 minutes.

[8] = brain and plasma drug levels in rats after phenserine i.v. dosing
Description: as §1

[9] = test system: beta amyloid precursor protein; assay: production of beta amyloid precursor protein
[10] = skin irritancy and skin penetration of mixture with oleic acid; details: 50:50 mixture with oleic acid
Text: Ethyl oleate gives a better performance still and is optimal in combination with propionic acid.

SMILES	effect of co-solvent on stability ([1]; propionic acid as co-solvent with isopropyl myristate and/or oleic acid)	chemical stability in vehicle ([1]; vehicles of the invention, such as propionic acid and/or oleic acid)	inhibition of cholinesterase activity [2]	transdermal flux rate ([3]; 25% in propionic acid/isopropyl myristate)	transdermal flux rate ([3]; 25% in propionic acid/oleic acid)	rise in brain ACh levels [4]	bioavailability ([5]; rat, plasma, po)	half-life of AChE inhibition ([5]; rats, i.v. dosing)	inhibition of AChE ([5]; rats, i.v. dosing)	signs of cholinergic over stimulation [6]	effect of co-solvent on solubility [7]	Kp ([8]; rat, brain / plasma, iv)	half-life ([8]; rat, brain, iv)	half-life ([8]; rat, plasma, iv)	time to peak drug level ([8]; rats, i.v. dosing)	production of beta amyloid precursor protein [9]	penetration through the skin [10]	skin irritancy [10]
CN1CC[C@@]2(C)c3cc(OC(=O)Nc4ccccc4)ccc3N(C)C12 (single isomer, unassigned) [phenserine]	increase	chemically stable	long-acting inhibitor of cholinesterase	sufficiently high transdermal flux rates	sufficiently high transdermal flux rates	> 3 fold	100%	> 495 min	> 70%	does not cause overt signs of cholinergic over stimulation	increase	10	8.5 min	12.6 min	≤ 5 min	reduction in β-APP production		
CN1CC[C@]2(C)c3cc(OC(=O)Nc4ccccc4)ccc3N(C)C12 (stereo partly drawn) [POSIPHEN, (3aR)-1,3a,8-trimethyl-1,2,3,3a,8,8a-hexahydropyrrolo[2,3-b]indol-5-yl phenylcarbamate]			does not inhibit cholinesterase activity													reduces the production of beta amyloid precursor protein		
CNC(=O)Oc1ccc2c(c1)[C@]1(C)CCN(C)[C@@H]1N2C [physostigmine]																	very efficient	non-irritant
